Results as given in US20070027215A1, “Nuclear receptor ligands and ligand binding domains” (The Regents of the University of California, priority 1995, published 2007).
Like-named read-outs stand apart in the source and are kept apart here.

What was measured:
[1] = molecular target: thyroid receptor (TR); test: Receptor binding assay with TR from rat liver nuclei and [125I]T3; conditions: TR from rat liver nuclei, 1 nM [125I]T3, overnight at 4° C.; read-out: App.Kd
Protocol: Baxter, and […]. […] The apparent Kd's are calculated using the method described by […]

[2] = test system: TR binding to RIP-140; test: RIP-140 coactivation assay (35S-RIP-140 binding to liganded TR); type: biochemical; parameters: key: +: RIP-140 Binding; −: RIP-140 Binding
Protocol: To test the ability of TR ligands to activate the binding of TR to the nuclear activation protein RIP-140 (a nuclear protein that can bind to nuclear receptors, such as the estrogen receptor), a TR ligand is liganded to TR and then incubated with RIP-140 as described in V. Cavailles, et al., EMBO J., 14(15):3741-3751 (1995), which is incorporated by reference herein. In this assay, 35S-RIP-140 protein binds to liganded TR but not unliganded TR.

[3] = test system: thyroid hormone receptors (TRs); test: CAT reporter gene activation in cultured cells; type: cell-based; conditions: U-937
Protocol: To test TR activation of transcription in a cellular environment, TR ligands are assayed for their ability to activate a reporter gene, chloramphenicol transferase (“CAT”), which has a TR DNA binding sequence operatively linked to it. Either GC or […] cells (available from the ATCC) can be used, respectively). In such assays, a TR ligand crosses the cell membrane, binds to the TR, and activates the TR, which in turn activates gene transcription of the CAT by binding the TR DNA binding region upstream of the CAT gene. The effective concentration for half maximal gene activation (EC50) is determined by assaying CAT gene activation at various concentrations as described herein and in the literature.
After electroporation, cells are pooled in growth medium (RPMI with 10% charcoal-treated, hormone stripped, newborn bovine serum), plated in 6-well dishes and treated with either ethanol or hormone. CAT activity is determined 24 hours later as described D. C. Leitman, R. C.

[4] = molecular target: T1, TR-α (Homo sapiens, UniProt P10827); test: Binding to TR isoform TR-α
T1 sequence (P10827 1-410 isoform P10827-2): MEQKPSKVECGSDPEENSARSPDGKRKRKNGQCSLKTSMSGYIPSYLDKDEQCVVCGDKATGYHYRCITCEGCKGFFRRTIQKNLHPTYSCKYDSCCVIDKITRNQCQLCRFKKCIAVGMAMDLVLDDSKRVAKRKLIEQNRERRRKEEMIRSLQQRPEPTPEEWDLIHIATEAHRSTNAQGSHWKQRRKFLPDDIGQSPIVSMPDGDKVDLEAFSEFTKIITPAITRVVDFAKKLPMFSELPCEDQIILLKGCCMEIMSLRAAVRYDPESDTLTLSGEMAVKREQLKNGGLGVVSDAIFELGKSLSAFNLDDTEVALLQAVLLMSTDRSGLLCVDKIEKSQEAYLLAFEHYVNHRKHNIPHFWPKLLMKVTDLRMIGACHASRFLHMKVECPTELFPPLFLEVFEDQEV
Text: Assays for determining selective binding to the TR-α or TR-β LBD can include reporter assays, as described herein.

[5] = molecular target: T2, TR-β (Homo sapiens, UniProt P10828); test: Binding to TR isoform TR-β
T2 sequence (P10828 1-461): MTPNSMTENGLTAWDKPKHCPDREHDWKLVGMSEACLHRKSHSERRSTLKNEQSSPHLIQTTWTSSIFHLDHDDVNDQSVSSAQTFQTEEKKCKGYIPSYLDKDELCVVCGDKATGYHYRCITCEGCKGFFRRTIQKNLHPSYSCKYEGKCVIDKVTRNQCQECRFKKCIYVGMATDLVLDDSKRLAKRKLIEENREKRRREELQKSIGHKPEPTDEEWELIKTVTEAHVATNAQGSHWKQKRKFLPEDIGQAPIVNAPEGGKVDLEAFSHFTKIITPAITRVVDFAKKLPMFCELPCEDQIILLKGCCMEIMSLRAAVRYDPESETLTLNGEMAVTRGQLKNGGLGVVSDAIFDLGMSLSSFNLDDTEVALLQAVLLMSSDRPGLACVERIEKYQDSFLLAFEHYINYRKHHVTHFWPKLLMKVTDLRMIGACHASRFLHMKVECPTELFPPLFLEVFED
Protocol: 3,5-dibromo-4-(3′,5′-diisopropyl-4′-hydroxyphenoxy)Benzoic Acid is a TR-α Selective Synthetic Ligand. [drawing 4] 3,5-dibromo-4-(3′,5′-diisopropyl-4′-hydroxyphenoxy)benzoic acid (Compound 11), the structure of which is drawn above, is assayed for binding to the two different isoforms of the TR, TR-α and TR-β. […] Assays for determining selective binding to the TR-α or TR-β LBD can include reporter assays, as described herein. See also Hollenberg, et al., J. Biol. Chem., (1995) 270(24):14274-14280.

[6] = molecular target: T3, human TR-α LBD (Homo sapiens, UniProt P10827); test: Competition for [125I]T3 binding, native TR-α; conditions: read-out: Binding Affinity, Native TR-α; competition with 1 nM [125I]T3
T3 sequence (P10827 163-410 isoform P10827-2 limits assumed): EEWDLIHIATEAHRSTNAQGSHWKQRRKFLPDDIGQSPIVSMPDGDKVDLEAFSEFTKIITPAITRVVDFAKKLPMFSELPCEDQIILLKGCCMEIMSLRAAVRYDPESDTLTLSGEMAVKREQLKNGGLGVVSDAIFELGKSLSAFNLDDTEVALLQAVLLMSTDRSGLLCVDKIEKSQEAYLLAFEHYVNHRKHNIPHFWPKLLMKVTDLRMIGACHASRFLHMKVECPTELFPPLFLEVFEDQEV

[7] = molecular target: T4, human TR-β LBD (Homo sapiens, UniProt P10828); test: Competition for [125I]T3 binding, native TR-β; conditions: read-out: Binding Affinity, Native TR-β
T4 sequence (P10828 217-461 limits assumed): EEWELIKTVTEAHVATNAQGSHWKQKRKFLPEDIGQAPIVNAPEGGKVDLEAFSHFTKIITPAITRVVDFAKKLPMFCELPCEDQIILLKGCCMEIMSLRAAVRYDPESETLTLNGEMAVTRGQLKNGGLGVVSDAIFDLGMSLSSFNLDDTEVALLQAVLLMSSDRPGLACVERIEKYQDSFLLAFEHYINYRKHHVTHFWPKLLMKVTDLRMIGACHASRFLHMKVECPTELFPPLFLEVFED
Protocol: Assays are performed in duplicate.
The following assays residues involved in selective binding among TR isoforms.

[8] = test system: TR; conditions: cited from earlier work
[9] = test system: TR; test: Receptor binding affinity stated in the structure discussion
[10] = half maximal CAT gene activation, GC or U937 cells, read-out: EC50

Row | Kd [1] [nM] | Coactivation Assay RIP-140 [2] | EC50 [3, 10] [nM] | SMILES | further results
1 | 220 | + | 1000 | CC(C)(C)OC(=O)NC(Cc1cc(I)c(Oc2ccc(O)cc2)c(I)c1)C(=O)O (stereo not shown) [TS5] | –
2 | – | + | – | CC(C)c1cc(Oc2c(I)cc(CC(N)C(=O)O)cc2I)ccc1O (stereo not shown) [TS9, reference compound] | –
3 | 8 | + | – | CC(C)(C)OC(=O)N[C@@H](Cc1cc(I)c(Oc2ccc(O)c(I)c2)c(I)c1)C(=O)O [TS4] | –
4 | 4 | + | 10 | O=C(N[C@@H](Cc1cc(I)c(Oc2ccc(O)c(I)c2)c(I)c1)C(=O)O)OCC1c2ccccc2-c2ccccc21 [TS3] | –
5 | 4 | + | 100 | O=C(N[C@@H](Cc1cc(I)c(Oc2ccc(O)c(I)c2)c(I)c1)C(=O)O)C(c1ccccc1)c1ccccc1 [TS1] | –
6 | 1400 | – | – | CCCCCCCCCCCCCCCCC(=O)N[C@@H](Cc1cc(I)c(Oc2ccc(O)c(I)c2)c(I)c1)C(=O)O [TS2] | –

Second part, the compound before the results:

Row | SMILES | Kd [1] [nM] | Coactivation Assay RIP-140 [2] | EC50 [3, 10] [nM] | further results
7 | CC(C)c1cc(Oc2c(Br)cc(C(=O)O)cc2Br)cc(C(C)C)c1O [Compound 11, 3,5-dibromo-4-(3′,5′-diisopropyl-4′-hydroxyphenoxy)benzoic acid] | – | – | – | IC50 [4]: 1600 nM; IC50 [5]: 910 nM
8 | CC(C)c1cc(Oc2c(Br)cc(C[C@H](N)C(=O)O)cc2Br)ccc1O [IpBr2, 3,5-dibromo-3′-isopropylthyronine] | – | – | – | Kd [6]: 0.017 nM
9 | Cc1cc(C[C@H](N)C(=O)O)cc(C)c1Oc1ccc(O)c(C(C)C)c1 [Dimit, 3,5-dimethyl-3′-isopropylthyronine] | – | – | – | Kd [7]: 8 nM; Kd [6]: 6 nM
10 | N[C@@H](Cc1cc(I)c(Oc2cc(I)c(O)c(I)c2)c(I)c1)C(=O)O [Compound T4, 3,5,3′,5′-tetraiodo-L-thyronine, reference compound] | – | + | 1 | affinity for the receptor as % of the affinity of T3 [8]: 2%
11 | O=C(O)Cc1cc(I)c(Oc2ccc(O)c(I)c2)c(I)c1 [Triac, 3,5,3′-triiodothyroacetic acid] | – | – | – | affinity for the alpha versus beta isoforms [9]: equal affinity; binding affinity compared with T3 [8]: equal to that of T3
12 | N[C@@H](Cc1cc(I)c(Oc2ccc(O)c(I)c2)c(I)c1)C(=O)O [Compound T3, 3,5,3′-triiodothyronine, reference compound] | – | + | – | EC50 [3]: 0.1 nM
